# US4260774A, “5-Carbamoyl imidazoles” (Sumitomo Chemical Company, Limited, priority 1976, dated 1981)
# Assays:
# L5178Y cells = details: in words; literature; suggested due to metabolic conversion to bredinin; cited from earlier work
# [1] = in words; literature; cited from earlier work
# Sarcoma 180 = assay: Antitumor effect on mouse experimental tumor Sarcoma 180 (solid); format: in vivo, mouse (ICR-JCL male mice); details: Sarcoma-180, ip, 240 h; for inhibition in vivo at 100 mg/kg: 100 mg/kg i.p.
# Experimental: ICR-JCL male mice, 5 weeks old, weighing between 23 and 26 grams were used. Each test group was composed of 5 mice. One million cells of Sarcoma 180 were injected intramusculary in hind leg. The drug was administered intrapenitoneally at day 1, 3, 5, 7 and 9. After killing the mice at day 10, tumors were removed and weighed. The tumor inhibitory ratio was calculated according to the following formula. [formula]
# [2] = test system: plaque forming cell (PFC); assay: Immunosuppressive activity: plaque forming cell (PFC) number by Cunningham method in mice injected with sheep red blood cells; format: in vivo; details: days 0 to 3, measured day 4
# Experimental: The immunosuppressive activities of the compounds of the present invention, Azathioprine and 6-mercaptopurine are given in the following table. After a sheep red blood cell preparation (SRBC) was injected in mice, the compounds were administered orally once a day on days 0 to 3. The plaque forming cell (PFC) number was measured on day 4 by Cunningham method. [Cunningham A. J. et al. Immunol. 14, 599 (1968)]
# mouse leukemia P388 = assay: Antitumor effect on mouse experimental tumor P388 leukemia; format: in vivo, CDF1 mouse; details: day 1 & 5
# Text: The antitumor activities of the compounds of the present invention were estimated according to the methods described in "Oyo-Yakuri," Vol. 14, P. 521 (in Japanese).
# animals: CDF1 mouse (6 mice/group)
# tumor: mouse leukemia P388
# inoculum size: 10^6 cells/mouse
# day of administration: day 1 & 5
# administration route: i.p.
# evaluation: median survival time
# lymphatic leukemia L1210 = details: in words; literature; cited from earlier work
# [3] = day 1, 3, 5, 7 and 9, tumor weight day 10, read-out: Inhibition Ratio (%) Sarcoma 180 (solid)
# [4] = read-out: Inhibition Ratio (%) Sarcoma 180 (solid)
smiles,measurement,setting,value
NC(=O)c1nc[nH]c1O [4-carbamoylimidazolium-5-olate],growth inhibitory effects on L5178Y cells,L5178Y cells,growth inhibitory effects
same,immunosuppressive activity / effects,[1],immunosuppressive effects
N#Cc1cccc(C(=O)Oc2nc[nH]c2C(N)=O)c1 [5-Carbamoyl-1H-imidazol-4-yl m-cyanobenzoate],inhibition in vivo at 100 mg/kg,Sarcoma 180; [3],38.3%
NC(=O)c1[nH]cnc1OC(=O)c1ccc(F)cc1 [5-Carbamoyl-1H-imidazol-4-yl p-fluorobenzoate],inhibition in vivo at 100 mg/kg,Sarcoma 180; [3],36%
Cc1ccc(C(=O)Oc2nc[nH]c2C(N)=O)cc1 [5-Carbamoyl-1H-imidazol-4-yl p-methylbenzoate],inhibition in vivo at 100 mg/kg,Sarcoma 180; [3],38.3%
NC(=O)c1[nH]cnc1OC(=O)c1ccc([N+](=O)[O-])cc1 [5-Carbamoyl-1H-imidazol-4-yl p-nitrobenzoate],inhibition in vivo at 100 mg/kg,Sarcoma 180; [3],44.7%
"NC(=O)c1[nH]cnc1OC(=O)c1ccccc1 [5-Carbamoyl-1H-imidazole-4-yl benzoate, 5-carbamoyl-1H-imidazol-4-yl benzoate]",Effects PFC/spleen × 10^-4,[2]; 25 mg/kg/day p.o.,19.88 ± 6.06 PFC/spleen × 10^-4
same,Suppression (%),[2]; 25 mg/kg/day p.o.,68.1%
same,Effects PFC/spleen × 10^-4,[2]; 100 mg/kg/day p.o.,8.63 ± 2.61 PFC/spleen × 10^-4
same,Suppression (%),[2]; 100 mg/kg/day p.o.,89.4%
"O=c1[nH]cc(F)c(=O)[nH]1 [5-Fluorouracil, reference compound]",inhibition in vivo at 30 mg/kg,Sarcoma 180; [4],66%
NC(=O)c1[nH]cnc1OC(=O)C12CC3CC(CC(C3)C1)C2 [5-carbamoyl-1H-imidazol-4-yl 1-adamantanecarboxylate],inhibition in vivo at 50 mg/kg,"Sarcoma 180; 50 mg/kg i.p., day 1, 3, 5, 7 and 9, tumor weight day 10, read-out: Inhibition Ratio (%) Sarcoma 180 (solid)",53.9%
same,inhibition in vivo at 100 mg/kg,Sarcoma 180; [3],71.4%
same,inhibition in vivo at 200 mg/kg,"Sarcoma 180; 200 mg/kg i.p., day 1, 3, 5, 7 and 9, tumor weight day 10, read-out: Inhibition Ratio (%) Sarcoma 180 (solid)",88.8%
same,inhibition in vivo at 206 mg/kg,"Sarcoma 180; 206 mg/kg i.p., day 1, 3, 5, 7 and 9, tumor weight day 10, read-out: Inhibition Ratio (%) Sarcoma 180 (solid)",100%
same,Evaluation T/C (%) P388 (median survival time),mouse leukemia P388; 100 mg/kg i.p.,112%
same,Evaluation T/C (%) P388 (median survival time),mouse leukemia P388; 200 mg/kg i.p.,120%
same,Evaluation T/C (%) P388 (median survival time),mouse leukemia P388; 400 mg/kg i.p.,138%
same,Effects PFC/spleen × 10^-4,[2]; 25 mg/kg/day p.o.,14.19 ± 2.24 PFC/spleen × 10^-4
same,Suppression (%),[2]; 25 mg/kg/day p.o.,77.2%
same,Effects PFC/spleen × 10^-4,[2]; 100 mg/kg/day p.o.,5.19 ± 1.29 PFC/spleen × 10^-4
same,Suppression (%),[2]; 100 mg/kg/day p.o.,93.6%
"NC(=O)c1[nH]cnc1OC(=O)c1ccc2c(c1)OCO2 [5-carbamoyl-1H-imidazol-4-yl 3,4-methylenedioxybenzoate]",inhibition in vivo at 100 mg/kg,Sarcoma 180; [3],65.1%
NC(=O)c1[nH]cnc1OC(=O)c1ccc(Br)cc1 [5-carbamoyl-1H-imidazol-4-yl p-bromobenzoate],inhibition in vivo at 100 mg/kg,Sarcoma 180; [3],66%
NC(=O)c1[nH]cnc1OC(=O)c1ccc(Cl)cc1 [5-carbamoyl-1H-imidazol-4-yl p-chlorobenzoate],inhibition in vivo at 100 mg/kg,Sarcoma 180; [3],49.1%
same,Effects PFC/spleen × 10^-4,[2]; 25 mg/kg/day p.o.,22.06 ± 5.37 PFC/spleen × 10^-4
same,Suppression (%),[2]; 25 mg/kg/day p.o.,64.6%
"Sc1ncnc2nc[nH]c12 [6-Mercaptopurine, 6-mercaptopurine, reference compound]",Effects PFC/spleen × 10^-4,[2]; 25 mg/kg/day p.o.,30.78 ± 6.28 PFC/spleen × 10^-4
same,Suppression (%),[2]; 25 mg/kg/day p.o.,60.2%
"Cn1cnc([N+](=O)[O-])c1Sc1ncnc2nc[nH]c12 [Azathioprine, 6-(1-methyl-4-nitro-5-imidazolyl)mercaptopurine, reference compound]",Effects PFC/spleen × 10^-4,[2]; 100 mg/kg/day p.o.,26.73 PFC/spleen × 10^-4
same,Suppression (%),[2]; 100 mg/kg/day p.o.,81.6%
"CO[C@@]12[C@H](COC(N)=O)C3=C(C(=O)C(C)=C(N)C3=O)N1C[C@@H]1N[C@@H]12 [Mitomycin C, reference compound]",inhibition in vivo at 2 mg/kg,Sarcoma 180; [4],74%
"NC(=O)c1ncn([C@@H]2O[C@H](CO)[C@@H](O)[C@H]2O)c1O [bredinin, 4-carbamoyl-1-β-D-ribofuranosylimidazolium-5-olate]",antitumor activity against lymphatic leukemia L1210,lymphatic leukemia L1210,weak antitumor activity
same,immunosuppressive activity / effects,[1],has immunosuppressive activity
